Values after ≈ are worked out from the molar mass of the structure shown.
Assays:
[1] = target: GTPase KRas (Homo sapiens, UniProt P01116, C118A/G12C); experiment: Inhibition of GDP bound recombinant human His-tagged KRAS G12C/C118A mutant (1 to 169 residues) assessed as reduction in SOS1-mediated GDP/GTP nucleotide exchange by measuring the disruption between GDP-bound recombinant His-tagged KRAS G12C/C118A (1 to 169 residues) and Ras binding domain of GST-tagged c-RAF (1 to 149 residues) preincubated for 5 mins followed by SOS1 and GTP addition and further incubated for 30 mins by AlphaLISA assay
[2] = target: GTPase KRas (Homo sapiens, UniProt P01116); experiment: Inhibition of KRAS in human MIAPaca2 cells assessed as decrease in EGF-stimulated ERK1/2 phosphorylation preincubated for 2 hrs followed by EGF stimulation; format: cell-based
[3] = test system: MIA PaCa-2; experiment: Antiproliferative activity against human MIAPaCa2 cells harboring KRAS G12C point mutant assessed as cell growth inhibition after 72 hrs by Celltiter-Glo luminescent cell viability assay; format: functional, cell-based; conditions: MIA PaCa-2, 72 h
[4] = test system: A549; experiment: Antiproliferative activity against human A549 cells harboring KRAS G12S point mutant assessed as cell growth inhibition after 72 hrs by Celltiter-Glo luminescent cell viability assay; format: functional, cell-based; conditions: A549, 72 h
[5] = Intrinsic clearance in mouse cryopreserved hepatocytes assessed per 10^6 cells at 0.5 uM measured upto 60 mins by LCMS analysis; format: ADME, cell-based, Hepatocyte; conditions: read-out: CLH
[6] = Intrinsic clearance in human cryopreserved hepatocytes assessed per 10^6 cells at 0.5 uM measured upto 60 mins by LCMS analysis; format: ADME, cell-based, Hepatocyte; conditions: read-out: CLH
[7] = Permeability of compound across apical to basolateral membrane in MDCK2 cells at 10 to 50 uM incubated for 2 hrs under shaking condition by LC-MS/MS analysis; format: ADME, cell-based, Canis lupus familiaris, MDCK-II; conditions: dog, MDCK; read-out: permeability
[8] = Solubility of compound in FaSSIF incubated for 48 to 72 hrs under shaking conditions by LCMS analysis; format: physicochemical
[9] = Clearance in BALB/c mouse at 1 mg/kg, iv or 10 mg/kg, po; format: ADME, organism-based; conditions: in vivo
[10] = Volume of distribution at steady state in BALB/c mouse at 1 mg/kg, iv or 10 mg/kg, po; format: ADME, organism-based; conditions: in vivo, read-out: Vdss
[11] = Half life in BALB/c mouse at 1 mg/kg, iv or 10 mg/kg, po; format: ADME, organism-based; conditions: in vivo
[12] = Oral bioavailability in BALB/c mouse at 10 mg/kg; format: ADME, organism-based; conditions: in vivo

IC50 [3]	IC50 [4]	hepatocyte CLint at 0.5 µM [5]	hepatocyte CLint at 0.5 µM [6]	Papp A→B at 2 h, up to 50 µM [7]	solubility thermodynamic [8]	clearance [9]	Vd [10]	half-life [11]	bioavailability [12]	SMILES	IC50 [1]	IC50 [2]
										C=CC(=O)N1CCN(c2nnc(-c3ccccc3C3CC3)c3cc(-c4c(O)cccc4F)c(Cl)cc23)CC1	1550 nM	7150 nM
										C=CC(=O)N1CCN(c2nc(=O)n(-c3ccccc3C(C)(C)C)c3nc(-c4c(O)cccc4F)c(Cl)cc23)[C@@H](C)C1		51 nM
6 nM	5800 nM	356 µL/min/1e6 cells	166 µL/min/1e6 cells	10 ×10⁻⁶ cm/s	260 µM (≈ 142 µg/mL)	26.7 mL/min/kg	1.4 L/kg	54 min	12%	C=CC(=O)N1CCN(c2nc(=O)n(-c3ccccc3C(C)C)c3cc(-c4ccccc4F)c(Cl)cc23)[C@@H](C)C1		
17 nM	2700 nM				71 µM (≈ 41.1 µg/mL)					C=CC(=O)N1CCN(c2nc(=O)n(-c3ccccc3C(C)C)c3cc(-c4cc(O)cc5ccccc45)c(Cl)cc23)CC1		
										C=CC(=O)N1CCN(c2nc(=O)n(-c3ncccc3C(C)C)c3nc(-c4c(O)cccc4F)c(Cl)cc23)[C@@H](C)C1		53 nM
22 nM	6400 nM	415 µL/min/1e6 cells	197 µL/min/1e6 cells	7 ×10⁻⁶ cm/s	344 µM (≈ 183 µg/mL)					C=CC(=O)N1CCN(c2nc(=O)n(-c3ccccc3C(C)C)c3cc(-c4ccccc4F)c(Cl)cc23)CC1		
										C=CC(=O)N1CCN(c2nnc(-c3ccccc3C(C)C)c3cc(-c4c(O)cccc4F)c(Cl)cc23)CC1	683 nM	1800 nM
										C=CC(=O)N1CCN(c2nnc(-c3ccccc3)c3cc(-c4c(O)cccc4F)c(Cl)cc23)CC1	20100 nM	58000 nM
16 nM	7100 nM	319 µL/min/1e6 cells	205 µL/min/1e6 cells	12 ×10⁻⁶ cm/s	175 µM (≈ 98.4 µg/mL)	90 mL/min/kg	4.8 L/kg	36 min	12%	C=CC(=O)N1CCN(c2nc(=O)n(-c3ccccc3C(C)C)c3nc(-c4ccccc4Cl)c(Cl)cc23)[C@@H](C)C1		
										C=CC(=O)N1CCN(c2nc(=O)n(-c3ccnn3C(C)C)c3nc(-c4c(O)cccc4F)c(Cl)cc23)[C@@H](C)C1		218 nM
										C=CC(=O)N1CCN(c2nnc(-c3ccccc3OC)c3cc(-c4c(O)cccc4F)c(Cl)cc23)CC1	9150 nM	8050 nM
40 nM	7400 nM	270 µL/min/1e6 cells	148 µL/min/1e6 cells	3 ×10⁻⁶ cm/s	218 µM (≈ 130 µg/mL)					C=CC(=O)N1CCN(c2nc(=O)n(-c3ccccc3C(C)C)c3cc(-c4ccccc4C(F)(F)F)c(Cl)cc23)[C@@H](C)C1		
										C=CC(=O)N1CCN(c2nnc(-c3ccccc3CC)c3cc(-c4c(O)cccc4F)c(Cl)cc23)CC1	903 nM	2580 nM
										C=CC(=O)N1CCN(c2nc(=O)n(-c3c(C)cccc3C)c3nc(-c4c(O)cccc4F)c(Cl)cc23)[C@@H](C)C1		199 nM

SMILES	IC50 [3]	IC50 [4]	hepatocyte CLint at 0.5 µM [5]	hepatocyte CLint at 0.5 µM [6]	Papp A→B at 2 h, up to 50 µM [7]	solubility thermodynamic [8]	clearance [9]	Vd [10]	half-life [11]	bioavailability [12]	IC50 [1]	IC50 [2]
C=CC(=O)N1CCN(c2nc(=O)n(-c3ccccc3C(C)C)c3cc(-c4ccccc4Cl)c(Cl)cc23)[C@@H](C)C1	18 nM	7400 nM	397 µL/min/1e6 cells	317 µL/min/1e6 cells	6 ×10⁻⁶ cm/s	255 µM (≈ 143 µg/mL)						220 nM
C=CC(=O)N1CCN(c2nc(=O)n(-c3ccccc3C(C)C)c3cc(-c4c(C)ccc5[nH]ncc45)c(Cl)cc23)CC1	4 nM	1700 nM	180 µL/min/1e6 cells	121 µL/min/1e6 cells	4 ×10⁻⁶ cm/s	218 µM (≈ 124 µg/mL)	70 mL/min/kg	5.3 L/kg	168 min	< 0.5%		8 nM
C=CC(=O)N1CCN(c2nc(=O)n(-c3ccccc3C(C)C)c3cc(-c4c(O)cccc4F)c(Cl)cc23)[C@@H](C)C1	14 nM	15300 nM	263 µL/min/1e6 cells	113 µL/min/1e6 cells	1 ×10⁻⁶ cm/s	226 µM (≈ 127 µg/mL)						28 nM
